Results on three molecules are retold here after US20130065834A1, “MODULATORS OF PROTEASOME ACTIVITY” (SALK INSTITUTE FOR BIOLOGICAL STUDIES, priority 2011, published 2013).

In data set [1] the test system is chymotrypsin-like activity of the proteasome. Description: 26S proteasome fluorogenic peptidase assay in worm lysate, chymotrypsin-like (Z-GGL-AMC / Suc-LLVY-AMC). In kind it is biochemical, C. elegans. The settings on record: worms at 25° C., 100 μg ml^−1 for the first three days of adulthood; FIG. 11. On the procedure: (§1) 26S proteasome activity assays. In vitro 26S proteasome activity assays were performed as previously described [Finley, D. Recognition and processing of ubiquitin-protein conjugates by the proteasome. Annual review of biochemistry 78, 477-513 (2009)]. Worms were lysed in proteasome activity assay buffer (50 mM Tris-HCl pH 7.5, 250 mM sucrose, 5 mM MgCl2, 0.5 mM EDTA, 2 mM ATP and 1 mM dithiothreitol) using a Precellys 24 homogenizer (Bertin technologies). Lysate was centrifuged at 10,000 g for 15 min at 4° C. 25 μg of total protein lysate was transferred to a 96-well microtiter plate (BD Falcon) and incubated with fluorogenic substrate. Fluorescence (380-nm excitation, 460-nm emission) was monitored on a microplate fluorometer (Infinite M1000, Tecan) every 5 min for 1 h at 25° C.
(§2) 26S proteasome fluorogenic peptidase assays. […] Methods in enzymology 398, 364-378 (2005)]. Briefly, worms were lysed in proteasome activity assay buffer (50 mM Tris-HCl pH 7.5, 250 mM sucrose, 5 mM MgCl2, 0.5 mM EDTA, 2 mM ATP and 1 mM dithiothreitol) using a Precellys 24 homogenizer (Bertin technologies). Lysate was centrifuged at 10,000 g for 15 min at 4° C. For each experiment, 25 μg of total protein lysate was transferred to a 96-well microtiter plate (BD Falcon) then fluorogenic substrate was added. For measuring the chymotrypsin-like activity of the proteasome either Z-Gly-Gly-Leu-AMC (Enzo) or Suc-Leu-Leu-Val-Tyr-AMC (Enzo) was used. Z-Leu-Leu-Glu-AMC (Enzo) was used to measure the caspase-like activity of the proteasome and Ac-Arg-Leu-Arg-AMC for the proteasome trypsin-like activity. Fluorescence (380-nm excitation, 460-nm emission) was monitored on a microplate fluorometer (Infinite M1000, Tecan) every 5 min for 1 h at 25° C.

Data set [2] addresses T1, chymotrypsin-like activity of the proteasome (Caenorhabditis elegans, UniProt Q9XUV0).
T1 construct: worms were lysed in proteasome activity assay buffer; from tissue; host or cells: whole-worm lysate of adult C. elegans (N2, glp-1(e2141), fer-15;fem-1, daf-16;glp-1, rpn-6.1 OE and RNAi-fed strains)
T1 sequence (Q9XUV0 65-284): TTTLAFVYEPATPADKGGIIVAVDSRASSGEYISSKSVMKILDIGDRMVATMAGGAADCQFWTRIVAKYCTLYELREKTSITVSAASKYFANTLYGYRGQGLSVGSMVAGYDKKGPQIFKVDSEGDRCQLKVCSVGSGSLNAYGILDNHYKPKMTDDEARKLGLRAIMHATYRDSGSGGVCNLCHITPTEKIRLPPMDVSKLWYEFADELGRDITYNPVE
Described as above. The class given is biochemical, C. elegans. The settings on record: inhibitor 20 min prior to substrate, vs DMSO. On the procedure: as §1, §2

The test system of data set [3] is polyubiquitinylated proteins, proteasome subunits, transcription factors. Nature of the data set: Western blot of human cell extracts. The settings on record: H9 hESCs; 62.5 nM 24 h. The class given is cell-based. Here is the method:
Western Blot. For analysis of proteasome subunits, cells were collected in proteasome activity assay buffer supplemented with protease inhibitors (Roche) and lysed by passing 10 times through a 27 gauge needle attached to a 1 ml syringe. Lysate was centrifuged at 10,000 g for 10 min at 4° C. Protein concentration of the cell homogenates was determined using the BCA protein assay (Pierce). For analysis of transcription factor and polyubiquitinylated proteins, cells were harvested from tissue culture plates by cell scraping and lysed in protein cell lysis buffer (10 mM Tris-Cl pH7.4, 10 mM EDTA, 50 mM NaCl, 50 mM NaF, 1% Triton X-100, 0.1% SDS supplemented with 2 mM sodium orthovanadate, 1 mM PMSF and Complete Mini Protease and PhosSTOP inhibitor cocktail mix) for 2 hrs at 1,000 rpm and 4° C. in a Thermomixer. Protein concentrations were determined with a standard Bradford protein assay (BioRad). 20-50 μg of total protein were separated by SDS-PAGE, transferred to nitrocellulose membranes (Whatman) and subjected to immunoblotting. […]
A general note: Immunoblotting shows a protein as a band on a membrane.

Data set [4] concerns the target T2, chymotrypsin-like activity of the proteasome (Homo sapiens, UniProt P28074).
T2 construct: 15-25 μg of total protein of cell lysates were transferred to a 96-well microtiter plate; endogenous in cells; host or cells: H9 and HUES-6 hESCs and derived NPCs, neurons, trophoblasts and fibroblasts; BJ fibroblasts, astrocytes, HEK293T
T2 sequence (P28074 60-263): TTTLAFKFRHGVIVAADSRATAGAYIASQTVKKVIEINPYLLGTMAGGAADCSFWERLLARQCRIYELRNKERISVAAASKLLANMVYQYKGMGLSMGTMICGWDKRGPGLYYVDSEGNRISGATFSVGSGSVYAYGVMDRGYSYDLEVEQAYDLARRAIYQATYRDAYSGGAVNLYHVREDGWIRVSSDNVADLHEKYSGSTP
Nature of the data set: 26S proteasome fluorogenic peptidase assay in human cell extracts, chymotrypsin-like. The class given is biochemical. As to conditions: H9 hESCs; 62.5 nM for 24 hours; vs DMSO. On the procedure:
26S proteasome fluorogenic peptidase assays. In vitro assay of 26S proteasome activities was performed as previously described (Kisselev, A. F. & Goldberg, A. L., Methods in enzymology 398, 364-378 (2005)). Cells were collected in proteasome activity assay buffer (50 mM Tris-HCl (pH 7.5), 250 mM sucrose, 5 mM MgCl2, 0.5 mM EDTA, 2 mM ATP and 1 mM dithiothreitol) and lysed by passing 10 times through a 27 gauge needle attached to a 1 ml syringe. Lysate was centrifuged at 10,000 g for 10 min at 4° C. 15-25 μg of total protein of cell lysates were transferred to a 96-well microtiter plate (BD Falcon) and then the fluorogenic substrate was added to lysates. For measuring the chymotrypsin-like activity of the proteasome Applicants used either Z-Gly-Gly-Leu-AMC (Enzo) or Suc-Leu-Leu-Val-Tyr-AMC (Enzo). Applicants used Z-Leu-Leu-Glu-AMC (Enzo) to measure the caspase-like activity of the proteasome and Ac-Arg-Leu-Arg-AMC for the proteasome trypsin-like activity. Fluorescence (380-nm excitation, 460-nm emission) was monitored on a microplate fluorometer (Infinite M1000, Tecan) every 5 min for 1 h at 25° C. Protein concentration of the cell homogenates was determined using the BCA protein assay (Pierce).

Another data set has as its system hESCs. Description: MG-132 treatment of cultured cells, cell death and detachment. The settings on record: hESCs vs NPCs or neurons; data not shown. In kind it is cell-based, human.
The next data set relates to H9 hESCs. Nature of the data set: quantitative RT-PCR in H9 hESCs. The class given is cell-based, human. The settings on record: 62.5 nM 24 h, relative to DMSO. Here is the method: Lentiviral infection of human stem cells. hESC colonies growing on Matrigel were incubated with mTesR1 medium containing 10 μM ROCK inhibitor (Y-27632) for one hApplicants' and individualized using Accutase 1×. 5×10^5 cells were infected in suspension with 10 μl of concentrated lentivirus in the presence of 10 μM ROCK inhibitor. Cell suspension was centrifuged to remove virus, passed through a mesh of […] to obtain individual cells and plated back on a feeder layer of fresh MEFs in hESC cell media supplemented with 10 μM ROCK inhibitor. After a few days in culture, small hES cell colonies arose. For LV-GFP and LV-shFOXOs stable lines, GFP positive colonies were selected and manually passaged onto fresh MEFs to establish new hESC cell lines. For LV-non-targeting shRNA, shPSMD11, shPSMC2, FOXO4 OE, FOXO4 AAA OE and PSMD11 OE stable lines, Applicants performed 1 μg/ml puromycin resistance selection during 3 days and then colonies were manually passaged onto fresh MEFs to establish new hESC cell lines. […]
RNA isolation and quantitative RT-PCR. Total RNA was extracted using RNAbee (Tel-Test Inc). cDNA was created using the Quantitect Reverse Transcriptase kit (Qiagen). […] Data was analyzed with the comparative 2ΔΔCt method using β-actin and GAPDH as housekeeping genes. […]

Where [5] appears, read: fer-15(b26);fem-1(hc17) worm lysate.

“Also recorded” adds a separate entry of the source. Residues, ends and D or L forms follow the SMILES beside them. *: point of attachment. Cbz = O=C(OCc1ccccc1)*

Regarding `O=c1[nH]c(=O)n([C@H]2C[C@H](O)[C@@H](CO)O2)cc1F` [FUdR, 5-fluoro-2′ deoxyuridine], the “proteasome activity in treated worms” value in data set [1] is given as “did not affect proteasome activity”.

For the molecule `CC(C)C[C@@H](C=O)NC(=O)[C@H](CC(C)C)NC(=O)[C@H](CC(C)C)NC(=O)OCc1ccccc1` [MG-132] (Cbz-Leu-Leu-Leu-aldehyde), the “chymotrypsin-like proteasome activity (Z-GGL-AMC)” value in data set [2] (setting [5]) and in data set [2] (glp-1(e2141) worm lysate) was “blocked activity from extracts; also recorded: blocked chymotrypsin-like proteasome activity” throughout. In addition, in data set [3], the polyubiquitinylated proteins result is given as “induces accumulation of polyubiquitinylated proteins”. Moreover, the “proteasome activity in hESCs” value in data set [4] is reported as “sufficient to reduce proteasome activity; also recorded: dramatically decreases proteasome activity”. The “sensitivity to proteasome inhibition (cell death and detachment)” value with hESCs was “hESCs were more sensitive to proteasome inhibition than NPCs or neurons”. For the same molecule, the “pluripotency markers (Real Time PCR)” value in the data set with H9 hESCs was “decreased pluripotency markers; also recorded: induces a decrease in pluripotency markers”.

For `CC(=O)N[C@@H](CSC(=O)[C@]1([C@@H](O)C(C)C)NC(=O)[C@H](C)[C@@H]1O)C(=O)O` [lactacystin], the “chymotrypsin-like proteasome activity (Z-GGL-AMC)” value in data set [2] (setting [5]) and in data set [2] (glp-1(e2141) worm lysate) was “blocked activity from extracts; also recorded: blocked chymotrypsin-like proteasome activity” in each case.
